Key:
MCF7 = assay: compound was tested in vitro for inhibition activity against a sensitive human breast carcinoma line cells.; assay type: functional, cell-based
NCI/ADR-RES = assay: compound was tested in vitro for inhibition activity against doxorubicin resistant counterpart of human breast carcinoma line cells.; assay type: functional, cell-based

IC50 (MCF7) [nM equiv l-1]	Structure (SMILES)	IC50 (NCI/ADR-RES) [nM equiv l-1]
8	COc1cccc2c1C(=O)c1c(O)c3c(c(O)c1C2=O)C[C@@](O)(C(C)=O)C[C@@H]3OC1CC2C(OCN2CN2COC3C(C)OC(O[C@H]4C[C@](O)(C(C)=O)Cc5c(O)c6c(c(O)c54)C(=O)c4c(OC)cccc4C6=O)CC32)C(C)O1 (stereo partly drawn) [DAUNOFORM]	10
60	COc1cccc2c1C(=O)c1c(O)c3c(c(O)c1C2=O)C[C@@](O)(C(C)=O)C[C@@H]3O[C@H]1C[C@H](N)[C@H](O)[C@H](C)O1 [DAUNORUBICIN]	2000
300	COc1cccc2c1C(=O)c1c(O)c3c(c(O)c1C2=O)C[C@@](O)(C(=O)CO)C[C@@H]3O[C@H]1C[C@H](N)[C@H](O)[C@H](C)O1 [DOXORUBICIN]	10000

Structure (SMILES)	IC50 (MCF7) [nM equiv l-1]	IC50 (NCI/ADR-RES) [nM equiv l-1]
COc1cccc2c1C(=O)c1c(O)c3c(c(O)c1C2=O)C[C@@](O)(C(=O)CO)C[C@@H]3OC1CC2C(OCN2CN2COC3C(C)OC(O[C@H]4C[C@](O)(C(=O)CO)Cc5c(O)c6c(c(O)c54)C(=O)c4c(OC)cccc4C6=O)CC32)C(C)O1 (stereo partly drawn) [DOXOFORM]	2	1

— ChEMBL document CHEMBL1130103, “Doxoform and Daunoform: anthracycline-formaldehyde conjugates toxic to resistant tumor cells” (J Med Chem, 1997)
